# Results published in the supplement of paper PMC13207355.
# Columns and labels:
# Conditions in all cases: exposure time: 72 h
# [1] = test system: E34 (patient-derived glioblastoma stem cells of proneural subtype); experiment: surviving fraction (nuclei count normalised to DMSO); higher = more cells surviving (less toxic)
# [2] = test system: E31 (patient-derived glioblastoma stem cells of proneural subtype); experiment: as above
# [3] = test system: E57 (patient-derived glioblastoma stem cells of mesenchymal subtype); experiment: as above
# [4] = test system: E13 (patient-derived glioblastoma stem cells of classical subtype); experiment: as above
# [5] = test system: E21 (patient-derived glioblastoma stem cells of mesenchymal subtype); experiment: as above
# [6] = test system: E28 (patient-derived glioblastoma stem cells of classical subtype); experiment: as above
# [7] = test system: FT3469 (normal neural stem cell line); experiment: as above
# [8] = test system: E34; experiment: phenotypic distance (Euclidean, principal components) from DMSO controls (arbitrary units); higher = stronger morphological change
# [9] = test system: E31; experiment: as above
# [10] = test system: E57; experiment: as above
# [11] = test system: E13; experiment: as above
# [12] = test system: E21; experiment: as above
# [13] = test system: E28; experiment: as above
# [14] = test system: FT3469; experiment: as above
# 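For phenotypic distance (Euclidean, principal components) from DMSO controls in this document: cell Painting imaging in 384-well plates, CellProfiler features reduced to at least 20 principal components, Euclidean distance versus same-plate DMSO vehicle wells (0.1% v/v), median over six images per well.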
# 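For surviving fraction (nuclei count normalised to DMSO) in this document: nuclei counted by high-content imaging of Hoechst-stained cells in laminin-coated 384-well plates, relative to 0.1% DMSO vehicle wells, with staurosporine as cell-death control.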
smiles,measurement,setting,value
Cc1c2ccncc2c(C)c2c1[nH]c1ccccc12 [Ellipticine],surviving fraction,[1]; 4.1 nM,1.07
same,surviving fraction,[1]; 12.3 nM,0.94
same,surviving fraction,[1]; 37 nM,1.04
same,surviving fraction,[1]; 111.1 nM,0.952
same,surviving fraction,[1]; 333.3 nM,0.935
same,surviving fraction,[1]; 1000 nM,0.753
same,surviving fraction,[1]; 3000 nM,0.534
same,surviving fraction,[2]; 4.1 nM,1.02
same,surviving fraction,[2]; 12.3 nM,0.977
same,surviving fraction,[2]; 37 nM,1.07
same,surviving fraction,[2]; 111.1 nM,0.963
same,surviving fraction,[2]; 333.3 nM,0.768
same,surviving fraction,[2]; 1000 nM,0.648
same,surviving fraction,[2]; 3000 nM,0.395
same,surviving fraction,[3]; 4.1 nM,0.88
same,surviving fraction,[3]; 12.3 nM,0.933
same,surviving fraction,[3]; 37 nM,0.926
same,surviving fraction,[3]; 111.1 nM,0.959
same,surviving fraction,[3]; 333.3 nM,0.867
same,surviving fraction,[3]; 1000 nM,0.784
same,surviving fraction,[3]; 3000 nM,0.409
same,surviving fraction,[4]; 4.1 nM,1.06
same,surviving fraction,[4]; 12.3 nM,0.896
same,surviving fraction,[4]; 37 nM,0.936
same,surviving fraction,[4]; 111.1 nM,0.958
same,surviving fraction,[4]; 333.3 nM,0.912
same,surviving fraction,[4]; 1000 nM,0.784
same,surviving fraction,[4]; 3000 nM,0.473
same,surviving fraction,[5]; 4.1 nM,0.991
same,surviving fraction,[5]; 12.3 nM,1.07
same,surviving fraction,[5]; 37 nM,0.888
same,surviving fraction,[5]; 111.1 nM,0.831
same,surviving fraction,[5]; 333.3 nM,0.754
same,surviving fraction,[5]; 1000 nM,0.72
same,surviving fraction,[5]; 3000 nM,0.499
same,surviving fraction,[6]; 4.1 nM,1.11
same,surviving fraction,[6]; 12.3 nM,1.11
same,surviving fraction,[6]; 37 nM,1.08
same,surviving fraction,[6]; 111.1 nM,1.05
same,surviving fraction,[6]; 333.3 nM,0.967
same,surviving fraction,[6]; 1000 nM,0.668
same,surviving fraction,[6]; 3000 nM,0.352
same,surviving fraction,[7]; 4.1 nM,1.13
same,surviving fraction,[7]; 12.3 nM,1.11
same,surviving fraction,[7]; 37 nM,1.08
same,surviving fraction,[7]; 111.1 nM,1.11
same,surviving fraction,[7]; 333.3 nM,1.3
same,surviving fraction,[7]; 1000 nM,0.787
same,surviving fraction,[7]; 3000 nM,0.649
same,phenotypic distance,[8]; 4.1 nM,0.723
same,phenotypic distance,[8]; 12.3 nM,0.43
same,phenotypic distance,[8]; 37 nM,0.492
same,phenotypic distance,[8]; 111.1 nM,0.978
same,phenotypic distance,[8]; 333.3 nM,1.01
same,phenotypic distance,[8]; 1000 nM,1.43
same,phenotypic distance,[8]; 3000 nM,2.39
same,phenotypic distance,[9]; 4.1 nM,0.486
same,phenotypic distance,[9]; 12.3 nM,0.52
same,phenotypic distance,[9]; 37 nM,0.379
same,phenotypic distance,[9]; 111.1 nM,0.662
same,phenotypic distance,[9]; 333.3 nM,0.789
same,phenotypic distance,[9]; 1000 nM,1.24
same,phenotypic distance,[9]; 3000 nM,2.27
same,phenotypic distance,[10]; 4.1 nM,1.05
same,phenotypic distance,[10]; 12.3 nM,0.752
same,phenotypic distance,[10]; 37 nM,1.12
same,phenotypic distance,[10]; 111.1 nM,1.64
same,phenotypic distance,[10]; 333.3 nM,1.87
same,phenotypic distance,[10]; 1000 nM,2.3
same,phenotypic distance,[10]; 3000 nM,4.58
same,phenotypic distance,[11]; 4.1 nM,0.815
same,phenotypic distance,[11]; 12.3 nM,0.556
same,phenotypic distance,[11]; 37 nM,0.741
same,phenotypic distance,[11]; 111.1 nM,0.932
same,phenotypic distance,[11]; 333.3 nM,1.52
same,phenotypic distance,[11]; 1000 nM,2.23
same,phenotypic distance,[11]; 3000 nM,4.47
same,phenotypic distance,[12]; 4.1 nM,1.16
same,phenotypic distance,[12]; 12.3 nM,1.17
same,phenotypic distance,[12]; 37 nM,1.79
same,phenotypic distance,[12]; 111.1 nM,2.04
same,phenotypic distance,[12]; 333.3 nM,2.29
same,phenotypic distance,[12]; 1000 nM,2.28
same,phenotypic distance,[12]; 3000 nM,2.98
same,phenotypic distance,[13]; 4.1 nM,0.578
same,phenotypic distance,[13]; 12.3 nM,0.641
same,phenotypic distance,[13]; 37 nM,0.588
same,phenotypic distance,[13]; 111.1 nM,0.478
same,phenotypic distance,[13]; 333.3 nM,0.804
same,phenotypic distance,[13]; 1000 nM,1.01
same,phenotypic distance,[13]; 3000 nM,2.73
same,phenotypic distance,[14]; 4.1 nM,1.04
same,phenotypic distance,[14]; 12.3 nM,0.711
same,phenotypic distance,[14]; 37 nM,0.462
same,phenotypic distance,[14]; 111.1 nM,0.869
same,phenotypic distance,[14]; 333.3 nM,1.18
same,phenotypic distance,[14]; 1000 nM,1.47
same,phenotypic distance,[14]; 3000 nM,1.7
